Test systems include SNB-78; SW-620; HL-60; XF498; LXFL 529; LOX IMVI; M14; KM-20L2; SNB-19; A549; DMS-273; OVCAR-5; M19-MEL; HCT-116; DMS-114.
Common to all, as to assay: NCI anticancer screen, dose series, 48 h

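1) Cells in 96-well plates. 2) Compound, 48 h, 5 concentrations. 3) Linear interpolation between surrounding doses. 4) Unreached endpoint = highest concentration. GI50 is the concentration that inhibits growth by half.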 Calls of active or inactive are those of the source. No stated cut-off is given here; in the data, active = GI50 up to about 1.1 µM and inactive = higher. Where only a bound is given, the exact number is not on record here.

Experimental findings from ChEMBL document CHEMBL1201862, “PubChem BioAssay data set” (2004) are described below.

In the case of `COc1cc(OC)cc(N2CCC(c3c(N)nc(N)nc3Cl)CC2)c1`, the GI50 is > 100 µM (inactive) with SNB-78; 65 µM (inactive) with SW-620; 18 µM (inactive) with HL-60; 26.3 µM (inactive) in the experiment on XF498; 37.8 µM (inactive) in the experiment with LXFL 529; > 100 µM (inactive) in the experiment with LOX IMVI. The GI50 with M14 is 75.3 µM (inactive); in the experiment with KM-20L2 it was > 100 µM (inactive); in the experiment on SNB-19, > 100 µM (inactive); with A549, 65 µM (inactive); in the experiment on DMS-273, > 100 µM (inactive); in the experiment on OVCAR-5 it was > 100 µM (inactive). In addition, the GI50 in the experiment with M19-MEL was > 100 µM (inactive).

In the case of `Cc1cc2c(=O)c3ccccc3[nH]c2c(C(N)=O)c1C`, the GI50 in the experiment on SNB-78, in the experiment on HCT-116, with SW-620, with XF498, in the experiment on LXFL 529 and with LOX IMVI was > 100 µM (inactive) in each case. Further, the GI50 in the experiment on M14, with DMS-114, in the experiment with KM-20L2, in the experiment with SNB-19, with A549 and in the experiment on OVCAR-5 was > 100 µM (inactive) throughout. In the experiment on M19-MEL, the GI50 was > 100 µM (inactive).

As to `CC1(C)C(=O)OC(n2cc(F)c(=O)[nH]c2=O)C1=O` (stereo unspecified), the GI50 in the experiment on SNB-78 is > 100 µM (inactive); with HCT-116 it was 89.5 µM (inactive); with SW-620, > 100 µM (inactive); with HL-60 it was > 100 µM (inactive); in the experiment on XF498, > 100 µM (inactive); in the experiment on LXFL 529, > 100 µM (inactive). The GI50 with LOX IMVI was > 100 µM (inactive); with M14 it was > 100 µM (inactive); in the experiment on DMS-114 it was > 100 µM (inactive); in the experiment with KM-20L2, > 100 µM (inactive); in the experiment on SNB-19 it was > 100 µM (inactive); with A549, 66.5 µM (inactive). The GI50 with OVCAR-5 and in the experiment with M19-MEL was > 100 µM (inactive) each time.

Turning to `CN1CCC(C(=O)NNc2ccccc2)CC1`, the GI50 is > 100 µM (inactive) in the experiment on SNB-78; > 43.4 µM (inactive) in the experiment on HCT-116; 7.98 µM (inactive) in the experiment on SW-620; 2.65 µM (inactive) in the experiment with HL-60; > 100 µM (inactive) in the experiment with XF498; 0.9 µM (active) in the experiment on LXFL 529. Besides, the GI50 with LOX IMVI is 0.923 µM (active); in the experiment with M14, 1.5 µM (inactive); in the experiment with DMS-114, 9.31 µM (inactive); in the experiment on KM-20L2, 1.69 µM (inactive); in the experiment on SNB-19, > 100 µM (inactive); in the experiment with A549, 12.2 µM (inactive). The values for the GI50 in the experiment on DMS-273, in the experiment on OVCAR-5 and with M19-MEL were 3.1 µM (inactive), 8.3 µM (inactive) and 13.9 µM (inactive), respectively.

Consider `COc1ccc(/C=C/C(=O)C(C)(C)C)cc1OC`, for which the GI50 with SNB-78 is 38 µM (inactive); in the experiment on SW-620, 79.4 µM (inactive); with XF498, 66.8 µM (inactive); in the experiment with LXFL 529 it was 43.6 µM (inactive); in the experiment on M14, > 100 µM (inactive); in the experiment with DMS-114, 39.7 µM (inactive). Further, the GI50 is 41.8 µM (inactive) in the experiment with KM-20L2; > 100 µM (inactive) with SNB-19; > 100 µM (inactive) in the experiment with A549; > 100 µM (inactive) in the experiment with OVCAR-5; > 100 µM (inactive) in the experiment on M19-MEL.
